Experimental data published in patent US20070298144A1, “Method for Protecting Bioactive Food Ingredients Using Decoy Ingredients” (COMPAGNIE GERVAIS DANONE, priority 2004, published 2007).
Several values for one entry are separate records, joined by “and”; a condition that tells them apart may be missing. Equal values may be shown once. Entries after “also recorded” stand apart in the source; their conditions may differ. Read-outs that look alike come from different tables or passages of the source. Where no end group is shown, it is not given here.

Assays:
[1] = In vivo animal; Migliore-Samour 1988; cited from earlier work
[2] = system: ferment containing strains I-2783, I-2774, I-2835 and I-1968; assay: Peptide added after fermentation, storage at 10° C (FIG. 4); parameters: species or system lactic bacteria
Procedure: FIG. 4: Curves illustrating the evolution of the residual content in bioactive αS1 [91-100] peptide in a final product comprised of 95% mass fermented by the ferment containing strains I-2783, I-2774, I-2835 and I-1968 and 5% flavored sugar syrup containing the αS1 [91-100] peptide, during storage at 10° C. The experiment was comprised of four independent tests: E1, E2, E3 and E4.
A logical alternative to the procedure studied above is to introduce the functional ingredient after fermentation (“delayed differentiation” procedure), for example with the syrup used to flavor the fermented mass.

Lactobacillus I-2809 = assay: Fermentation of Lactium milk by pure strain; settings: dairy mix containing 1.5 g/l of Lactium; pure strain I-2809; stopped at pH 4.7
Procedure: (§1) After centrifugation, the supernatant constituted the representative sample of the peptide content of the fermented medium. • Said sample was injected into an Agilent 1100 HPLC system (Agilent Technologies France, 1 rue Galvani, 91745 Massy Cedex, France), equipped with a Waters Symetry® column suitable for peptide analysis (5 μm, 2.1×150 mm, WAT056975, Waters France, 5, rue Jacques Monod, 78280 Guyancourt) at a temperature of 40° C. and a flow rate of 0.25 ml/min. The peptides were eluted in a conventional way with an increasing gradient of solvent B (acetonitrile and 0.100% formic acid) in solvent A (water and 0.106% formic acid) for a period of 40 minutes to 2 hours as a function of the resolution desired. • Detection was carried out using a specific MS/MS detector, for example with an ionic trap device such as the Esquire 3000+(Bruker Daltonique, rue de l'Industrie, 67166 Wissembourg Cedex) set either for overall analysis of peptide content (MS-MS mode) or for the precise and specific quantification of a peptide from its characteristic fragments. For example, the αS1 [91-100] peptide was isolated from its mass (doubly charged ion of mass 634.5 Da) and quantified from the intensity of its characteristic daughter ions after fragmentation (ions for m/z=991.5 Da, 771.5 Da and 658.3 Da). In an even more precise manner, an internal standard comprised of the same doubly deuterated synthetic peptide (993.5 Da characteristic fragment) made it possible to take into account and to exclude potential interference related to the matrix.
(§2) In order to verify that this phenomenon was not specific to the two ferments used in paragraph 1.1) above, the principle industrial ferments, as well as various pure strains used in the composition of said ferments, were examined using the same test: milk reconstituted from powdered milk, to which Lactium® was added in an amount of 1.5 g/l, was fermented under standard conditions (optimal temperature for the ferment between 37° C. and 42° C., fermentation stopped at pH 4.7, two repetitions). Analysis of the level of bioactive αS1 [91-100] peptide was then carried out on the sample before and after fermentation.
(§3) In table 3 above, which reflects the consumption of the bioactive αS1 [91-100] peptide by various ferments and industrial strains during the fermentation of a dairy mix containing 1.5 g/l of Lactium®, the pure strains were identified by their CNCM (Pasteur Institute, Paris, France) number and deposit date.

S. thermophilus I-1630 = assay: Fermentation of Lactium milk by pure strain; settings: dairy mix containing 1.5 g/l of Lactium; pure strain I-1630; stopped at pH 4.7
Procedure: as §1, §2, §3

Lactobacillus I-1632 = assay: Fermentation of Lactium milk by pure strain; settings: dairy mix containing 1.5 g/l of Lactium; pure strain I-1632; stopped at pH 4.7
Procedure: as §1, §2, §3

Lactobacillus I-1968 = assay: Fermentation of Lactium milk by pure strain; settings: dairy mix containing 1.5 g/l of Lactium; pure strain I-1968; stopped at pH 4.7
Procedure: as §1, §2, §3

Lactobacillus I-1519 = assay: Fermentation of Lactium milk by pure strain; settings: dairy mix containing 1.5 g/l of Lactium; pure strain I-1519; stopped at pH 4.7
Procedure: as §1, §2, §3

S. thermophilus I-1477 = assay: Fermentation of Lactium milk by pure strain; settings: dairy mix containing 1.5 g/l of Lactium; pure strain I-1477; stopped at pH 4.7
Procedure: as §1, §2, §3

[3] = system: ferment consisting of a mixture of the strains I-2783, I-2774, I-2835 and I-1968, or YC-380; assay: Fermentation of dairy mix supplemented with Lactium; residual peptides by HPLC-MS/MS; parameters: species or system lactic bacteria; settings: 1.5 g/l Lactium added before fermentation; four-strain ferment or YC-380; to pH 4.70
Procedure: The medium was prepared by hydration of powdered skim milk to 120 g/l, supplemented with 1.5 g/l of Lactium® (corresponding to approximately 30 mg/l of the bioactive αS1 [91-100] peptide), then pasteurized at 95° C. for 8 minutes.
The lactic ferment was added in a proportion of 0.02% and fermentation was carried out at the optimal temperature for the selected ferment (37-42° C.) until a pH of 4.70 was reached.
After centrifugation, the supernatant constituted the representative sample of the peptide content of the fermented medium. • Said sample was injected into an Agilent 1100 HPLC system (Agilent Technologies France, 1 rue Galvani, 91745 Massy Cedex, France), equipped with a Waters Symetry® column suitable for peptide analysis (5 μm, 2.1×150 mm, WAT056975, Waters France, 5, rue Jacques Monod, 78280 Guyancourt) at a temperature of 40° C. and a flow rate of 0.25 ml/min. […] For example, the αS1 [91-100] peptide was isolated from its mass (doubly charged ion of mass 634.5 Da) and quantified from the intensity of its characteristic daughter ions after fragmentation (ions for m/z=991.5 Da, 771.5 Da and 658.3 Da). […]

[4] = Fermented product heat treated at 75° C for 1 minute, storage at 10° C (FIG. 5); settings: 75° C. for approximately 1 min; stored at 10° C. until UBD
Procedure: Since the consumption of the bioactive peptide is caused by the metabolic activity of the ferments, it may be considered useful to reduce this phenomenon by destroying all or part of the microorganisms, for example using a suitable heat treatment (thermization or pasteurization).
FIG. 5: Curves illustrating the evolution of the residual content in bioactive αS1 [91-100] peptide added after fermentation in a fermented product which was then heat treated at 75° C. for 1 minute and then stored at 10° C. until the use-by date (UBD).

platelet aggregation = settings: In vitro; Jollès 1986; Raha 1988; cited from earlier work
[5] = system: Hansen YC-380 lactic ferment; assay: Fermentation of dairy mix containing DMV C12 hydrolysate (FIG. 3); parameters: species or system lactic bacteria; settings: 1.5 g/l of DMV C12 hydrolysate, fermentation up to pH 4.7
Description: FIG. 3: Compared peptide profiles (LC-MS/MS chromatograms) of a dairy “mix” containing 1.5 g/l of DMV C12® hydrolysate, before (1) and after (2) fermentation up to pH 4.7 by the Hansen YC-380 lactic ferment. Virtually all of the hydrolysate peptides, including the bioactive C12 peptide (αS1 [23-34] fragment), disappeared following metabolism by the ferment strains.
In addition, in order to verify that this phenomenon was not specific to Lactium®, several combinations of ferments and other ingredients containing bioactive peptides were studied by implementing the same test (reconstituted milk and an ingredient to be tested in an amount of 1.5 g/l, fermented under standard conditions, fermentation stopped at pH 4.7, two repetitions).

[6] = system: mouse peritoneal macrophages; settings: In vitro; Parker 1996; cited from earlier work
arterial pressure [7] = settings: Hypertensive rats; after ingestion; Nakamura 1995; cited from earlier work
arterial pressure [8] = settings: Normal rats; Nakamura 1995; cited from earlier work
arterial pressure [9] = settings: Hypertensive humans (36 subjects); 8 weeks of ingestion of 95 ml/d; Hata 1996; cited from earlier work
[10] = system: experimental arterial thrombosis; settings: Rat and guinea pig with experimental arterial thrombosis; after IV injection; Drouet 1990; cited from earlier work
Staphylococcus aureus = settings: Mouse, sheep; IM injection; Lahov 1996; cited from earlier work

In the case of “Casein 63-68: Bovine β-casein, Casein 63-68 (PGPIPN; UniProt P02666 78-83, looked up, fragment)”, the protection in vivo [1] is given as “No protection in vivo”.
For “αS1 [91-100] peptide: peptide with anti-convulsive properties contained in milk protein hydrolysates, marketed by Ingredia under the name Lactium® (YLGYLEQLLR; UniProt P02662 106-115, looked up, fragment)”, the “initial quantity of active peptide left on the use-by date (UBD)” value ([2]; added cold (4° C.) after fermentation, 1.5 g of Lactium per kg of final product, storage at 10° C.) was 30-40%, the “αS1 [91-100] peptide disappeared during storage of the final product” value ([2]; after 10 days, fresh products whose UBD is 28 days) was 35-50% and 35-55% and the “% of αS1 [91-100] peptide remaining after fermentation” value (“% of αS1 [91-100] peptide remaining” below) (Lactobacillus I-2809) was 0.4%. For the same substance, the “% of αS1 [91-100] peptide remaining” value (S. thermophilus I-1630) was 0.3%, the “% of αS1 [91-100] peptide remaining” value (Lactobacillus I-1632) was 0.2% and the “% of αS1 [91-100] peptide remaining” value (Lactobacillus I-1968) was 1.6%. For the same substance, the “% of αS1 [91-100] peptide remaining” value (Lactobacillus I-1519) was 0.1%, the “% of αS1 [91-100] peptide remaining” value (S. thermophilus I-1477) was 0.3% and the “bioactive αS1 [91-100] peptide consumed after fermentation” value [3] was “more than 95%”. For the same substance, the “stability of αS1 [91-100] peptide in heat-treated fermented product” value [4] was “possible to assure the stability; also recorded: possible to preserve”.
For “Peptide 106-116 of bovine κ-casein: Peptide 106-116 of bovine κ-casein (MAIPPKKNQDK; UniProt P02668 127-137, looked up, fragment)”, the platelet aggregation (platelet aggregation) is listed as “Inhibition of platelet”.
In the case of “C12 peptide: bioactive C12 peptide (αS1 [23-34] fragment) of DMV C12® hydrolysate (FFVAPFPEVFGK; UniProt P02662 38-49, looked up, fragment)”, the “hydrolysate peptides after fermentation (LC-MS/MS peptide profile)” value [5] is reported as “disappeared”.
In the case of “α-lactalbumin 51-53: α-lactalbumin 51-53 (GLF; UniProt P00711 70-72, looked up, fragment)”, the “sheep red blood cell phagocytosis by mouse peritoneal macrophages” value [6] is given as “Stimulation of sheep red blood”.
In the case of II-Pro-Pro, the arterial pressure (arterial pressure [7]) is given as “ingestion, decrease in arterial”, the arterial pressure (arterial pressure [8]) is given as “Normal rats: no effect” and the arterial pressure (arterial pressure [9]) is given as “decrease in arterial pressure”.
For “Human β-casein 54-59: Human β-casein 54-59 (VEPIPY; UniProt P05814 69-74, looked up, fragment)”, the “sheep red blood cell phagocytosis by mouse peritoneal macrophages” value [6] is listed as “Stimulation of sheep red blood”.
In the case of “Human lactotransferrin tetrapeptide (39-42): Human lactotransferrin tetrapeptide (39-42) (RDSP; UniProt P02788 58-61, looked up, fragment)”, the platelet aggregation (platelet aggregation) is given as “Inhibition of platelet” and the antithrombotic activity [10] is given as “after IV injection, antithrombotic”.
In the case of “RPKHPIKHQGLPQEVLNENLLRF [αS1B-casein fragment (1-23 N terminal)]”, the “efficacy against Staphylococcus aureus” value (Staphylococcus aureus) is listed as “Mouse, sheep: effective via IM injection”.
For Val-Pro-Pro, the arterial pressure (arterial pressure [7]) is given as “ingestion, decrease in arterial”, the arterial pressure (arterial pressure [8]) is given as “Normal rats: no effect” and the arterial pressure (arterial pressure [9]) is given as “decrease in arterial pressure”.
For “Casein 191-193: Bovine β-casein, Casein 191-193 (LLY; UniProt P02666 206-208, looked up, fragment)”, the protection in vivo [1] is listed as “No protection in vivo”.
